The values that follow are results of earlier work, collected in US20160158203A1, “METHODS OF TREATMENT WITH BIOAVAILABLE COMPOSITIONS OF METAXALONE COMPRISING NONVOLATILE LIQUIDS” (priority 2004, published 2016).

The conditions of the data set: as reviewed in U.S. Pat. Nos. 6,407,128 and 6,683,102.

Molecules are shown by their SMILES.

As to `Cc1cc(C)cc(OCC2CNC(=O)O2)c1` (stereo not shown) [metaxalone, 5-[(3,5-dimethylphenoxy)methyl]-2 oxazolidinone], the “Aqueous solubility (description)” value was “essentially water-insoluble”.
